# Results: patent publication US20080286815A1, “SPECTROPHOTOMETRIC ASSAY FOR HUMAN HISTONE DEACETYLASE 8” (THE UNIVERSITY OF AKRON, priority 2007, published 2008)
# Ends that are not written are not given here.
# Legend:
# purified human HDAC1 = purified human HDAC1 (Homo sapiens, UniProt Q13547); experiment: HPLC-based assay with purified HDAC1; assay type: biochemical; conditions: for dethioacetylation by HDAC1: purified HDAC1, HPLC-based assay format
# Procedure: (§1) HPLC-based enzymatic assay. The HPLC data shown in FIG. 4 was generated using the following procedure. The HDAC8-catalyzed dethioacetylation reaction was performed in the same HDAC8 assay solution as above-described, except that no thioacetic acid was added but purified HDAC8 and its substrate (i.e. the above-described peptide ii) were added to final concentrations of 375 nM and 0.3 mM, respectively. An enzymatic reaction was initiated by the addition of HDAC8 at room temperature and was allowed to be incubated at room temperature until quenched at different time points with the following stop solution: 3.2 M guanidinium chloride in 100 mM of sodium phosphate (pH 6.8). One portion (40 uL) of the HDAC8 assay mixture was quenched with 80 uL of the above stop solution, and was analyzed as set forth above by RP-HPLC with a C18 analytical column (100 Å, 0.46×25 cm), eluting with the following gradient of double deionized water containing 0.05% (v/v) trifluoroacetic acid (mobile phase A) and acetonitrile containing 0.05% (v/v) trifluoroacetic acid (mobile phase B): linear increase from 0% B to 35% B from 0-40 min (1 mL/min), and ultraviolet (UV) monitoring at 214 nm. The enzymatically formed dethioacetylated product (i.e. the above-referenced peptide i) was confirmed by its comigration with the chemically synthesized authentic sample and by mass spectrometric analysis with MALDI-TOF, and was quantified by HPLC peak integration and comparison with that of the synthetic authentic sample. The same assay protocol was used when the HeLa nuclear extracts were used instead of human HDAC8. Nearly same assay protocols were used when purified HDAC1 and HDAC2 were employed instead of HDAC8, with the following exceptions: i) For HDAC1 assays, 50 mM Tris.HCl (pH 8.0) was used instead of 25 mM Tris.HCl (pH 8.0); ii) HDAC2 assays were performed at 30° C. instead of RT; iii) HDAC1 and HDAC2 assay solutions were all quenched with the following stop solution: 1.0 M HCl and 0.16 M acetic acid. These changes were instituted to more clearly assess the selectivity. […]
# [1] = test system: HeLa nuclear extracts enriched in HDAC1 and 2; experiment: HPLC-based and DTNB-based assays with HeLa nuclear extracts; assay type: biochemical, human; conditions: for dethioacetylation by HeLa nuclear extracts: HDAC8 replaced with HeLa nuclear extracts, HPLC-based and DTNB-based assay formats; for kobs (deacetylation by HeLa nuclear extracts): 30 min; for kobs (deacetylation by HeLa nuclear extracts) / substrate turnover: HPLC analysis; for substrate turnover: at 30 min
# Procedure: HPLC-based enzymatic assay. The HPLC data shown in FIG. 4 was generated using the following procedure. The HDAC8-catalyzed dethioacetylation reaction was performed in the same HDAC8 assay solution as above-described, except that no thioacetic acid was added but purified HDAC8 and its substrate (i.e. the above-described peptide ii) were added to final concentrations of 375 nM and 0.3 mM, respectively. An enzymatic reaction was initiated by the addition of HDAC8 at room temperature and was allowed to be incubated at room temperature until quenched at different time points with the following stop solution: 3.2 M guanidinium chloride in 100 mM of sodium phosphate (pH 6.8). One portion (40 uL) of the HDAC8 assay mixture was quenched with 80 uL of the above stop solution, and was analyzed as set forth above by RP-HPLC with a C18 analytical column (100 Å, 0.46×25 cm), eluting with the following gradient of double deionized water containing 0.05% (v/v) trifluoroacetic acid (mobile phase A) and acetonitrile containing 0.05% (v/v) trifluoroacetic acid (mobile phase B): linear increase from 0% B to 35% B from 0-40 min (1 mL/min), and ultraviolet (UV) monitoring at 214 nm. The enzymatically formed dethioacetylated product (i.e. the above-referenced peptide i) was confirmed by its comigration with the chemically synthesized authentic sample and by mass spectrometric analysis with MALDI-TOF, and was quantified by HPLC peak integration and comparison with that of the synthetic authentic sample. The same assay protocol was used when the HeLa nuclear extracts were used instead of human HDAC8. Nearly same assay protocols were used when purified HDAC1 and HDAC2 were employed instead of HDAC8, with the following exceptions: i) For HDAC1 assays, 50 mM Tris.HCl (pH 8.0) was used instead of 25 mM Tris.HCl (pH 8.0); ii) HDAC2 assays were performed at 30° C. instead of RT; iii) HDAC1 and HDAC2 assay solutions were all quenched with the following stop solution: 1.0 M HCl and 0.16 M acetic acid. These changes were instituted to more clearly assess the selectivity.
# DTNB-based enzymatic assay. The DTNB data shown in FIG. 4 was generated using the following procedure. A second portion (300 µL) of the above HDAC8 assay mixture was quenched with 600 µL of the stop solution: 3.2 M guanidinium chloride in 100 mM of sodium phosphate (pH 6.8), and was analyzed by the DTNB-based assay procedure according to the invention, i.e. 60 min after the quench and DTNB (100 µL) addition, A412 was recorded for each sample derived at different time points of the same assay reaction. Again, the same assay protocol was used when the HeLa nuclear extracts were used instead of human HDAC8. To measure the kinetic parameters for the thioacetyl-lysine p53 peptide as an in vitro HDAC8 substrate, all the assay reactions contained 375 nM of HDAC8, a range of substrate concentrations varied around the Km value, and were allowed to proceed at room temperature for 1 hour before quenching. Reaction velocities were determined under initial condition (substrate turnover <10%). This experiment was performed twice, and each duplicate measurement agreed within 20%. By using a non-linear least squares approach with the computer program Kaleidagraph (Reading, Pa., USA), kinetic parameters (kcat and Km) were derived from the Michaelis-Menten plot based on the experimental data.
# Assay with HeLa nuclear extracts. In order to examine the selectivity of our newly developed DTNB-based spectrophotometric assay among different classical HDAC enzymes, we initially performed both the HPLC-based and the DTNB-based assays with the HeLa nuclear extracts enriched in HDAC1 and 2. The procedures for the HDAC8 assay were followed.
# purified human HDAC2 = purified human HDAC2 (Homo sapiens, UniProt Q92769); experiment: HPLC-based assay with purified HDAC2; assay type: biochemical; conditions: for dethioacetylation by HDAC2: purified HDAC2, 30° C., HPLC-based assay format
# Procedure: as §1
# [2] = listed as thioacetyl-lysin peptide
# purified human HDAC2, sequence (Q92769 whole entry): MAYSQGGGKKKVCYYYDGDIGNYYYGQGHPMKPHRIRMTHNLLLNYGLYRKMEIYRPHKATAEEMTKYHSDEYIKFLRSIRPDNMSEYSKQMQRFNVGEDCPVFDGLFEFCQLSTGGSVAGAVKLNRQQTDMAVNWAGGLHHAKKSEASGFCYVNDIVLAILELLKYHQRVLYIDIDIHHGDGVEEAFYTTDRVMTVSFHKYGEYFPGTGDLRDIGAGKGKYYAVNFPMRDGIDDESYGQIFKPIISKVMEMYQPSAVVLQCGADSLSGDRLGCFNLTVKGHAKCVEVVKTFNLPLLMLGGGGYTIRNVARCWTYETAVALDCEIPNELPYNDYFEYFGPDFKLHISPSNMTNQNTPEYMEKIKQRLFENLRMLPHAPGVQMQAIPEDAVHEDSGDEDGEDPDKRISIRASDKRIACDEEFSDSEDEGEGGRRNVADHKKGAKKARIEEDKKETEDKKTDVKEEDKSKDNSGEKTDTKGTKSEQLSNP
# purified human HDAC1, sequence (Q13547 whole entry): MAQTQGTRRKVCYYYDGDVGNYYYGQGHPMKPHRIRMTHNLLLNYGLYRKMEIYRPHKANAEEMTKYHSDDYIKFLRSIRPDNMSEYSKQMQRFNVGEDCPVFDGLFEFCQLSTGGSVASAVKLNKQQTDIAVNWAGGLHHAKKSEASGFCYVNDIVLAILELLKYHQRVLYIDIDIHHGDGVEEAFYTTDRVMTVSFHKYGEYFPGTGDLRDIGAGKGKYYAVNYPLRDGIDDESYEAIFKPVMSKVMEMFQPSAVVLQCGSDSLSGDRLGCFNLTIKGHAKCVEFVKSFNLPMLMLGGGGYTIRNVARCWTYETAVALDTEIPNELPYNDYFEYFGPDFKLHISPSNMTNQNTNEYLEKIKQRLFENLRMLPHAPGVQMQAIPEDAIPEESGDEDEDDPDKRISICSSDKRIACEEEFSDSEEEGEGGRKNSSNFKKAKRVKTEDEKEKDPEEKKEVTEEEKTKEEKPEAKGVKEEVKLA
compound,measurement,setting,value
"CSCC[C@H](NC(=O)[C@H](CC(C)C)NC(=O)[C@H](CCCCNC(C)=S)NC(=O)[C@H](CCCCN)NC(=O)[C@H](Cc1c[nH]cn1)NC(=O)[C@H](CCCNC(=N)N)NC(=O)[C@H](CO)NC(=O)[C@@H](NC(=O)[C@H](CO)NC(=O)[C@H](CCC(N)=O)NC(=O)CNC(=O)[C@H](CCCCN)NC(=O)[C@@H](N)CCCCN)[C@@H](C)O)C(=O)N[C@@H](Cc1ccccc1)C(=O)N[C@@H](CCCCN)C(=O)N[C@H](C(=O)N[C@@H](CCC(=O)O)C(=O)NCC(=O)O)[C@@H](C)O [thioacetyl-lysine p53 peptide, H2N-KKGQSTSRHK(ThAcK)LMFKTEG-COOH]",dethioacetylation by HDAC1,purified human HDAC1,no detectable dethioacetylation
same,dethioacetylation by HDAC1,purified human HDAC1; [2],did not serve as a substrate
same,dethioacetylation by HeLa nuclear extracts,[1],no detectable dethioacetylation
same,dethioacetylation by HeLa nuclear extracts,[1]; listed as thioacetyl-lysine peptide,did not serve as a substrate
same,dethioacetylation by HDAC2,purified human HDAC2,no detectable dethioacetylation
same,dethioacetylation by HDAC2,purified human HDAC2; [2],did not serve as a substrate
AcNH—RH(AcK)—(AcK)—CONH2,kobs (deacetylation by HeLa nuclear extracts),[1],0.29±0.02 uM/(min·4 uL of the nuclear extracts)
AcNH—RH(ThAcK)(ThAcK)—CONH2,dethioacetylation by HeLa nuclear extracts,[1],no detectable dethioacetylation
"acetyl-lysine p53 peptide: human p53 C-terminal peptide (amino acid residue 372-389) containing Nε-acetyl-lysine at the 382 position (KKGQSTSRHKK(Ac)LMFKTEG; UniProt P04637 372-389, looked up, fragment)",kobs (deacetylation by HDAC1),"purified human HDAC1; purified HDAC1, at 2 h",0.41 ± 0.23 min⁻¹
same,kobs (deacetylation by HeLa nuclear extracts),[1],0.23±0.01 uM/(min·4 uL of the nuclear extracts)
same,substrate turnover,[1]; 4 uL of the HeLa nuclear extracts (9 mg of protein per mL),2.3%
same,substrate turnover,[1]; 12 uL of the HeLa nuclear extracts (9 mg of protein per mL),6.5%
same,kobs (deacetylation by HDAC2),"purified human HDAC2; purified HDAC2, at 30 min",6.78 ± 2.39 min⁻¹
